# Assay: Transdermal electrotransport goserelin delivery at two constant current densities (Example 4)
# Type: in vivo, human
# Protocol: This study was undertaken to evaluate the relationship between current density and drug flux in the transdermal electrotransport delivery of goserelin. The study involved the application of electrotransport devices, applying constant current, to 12 normal male volunteers for a duration of 8 hours.
# The two electrotransport treatment regimens in this study differed only in applied current density levels. The electrotransport devices delivered goserelin through the skin from polyvinyl alcohol (PVOH)-based donor hydrogels having a skin-contact surface area of 4 cm^2. The gels contained an aqueous goserelin solution. The current density levels used in this study were 50 and 100 μA/cm^2. After an 8 hour treatment period, the electrotransport devices were removed. The skin site was then washed to remove any residual goserelin. All 12 volunteers received each treatment seven days apart.
# For each treatment, seven blood samples were taken over a 24 hour period commencing with the application of current from the electrotransport devices. Serum goserelin concentrations from each patient were used to calculate mean drug flux and the mean total amount of drug delivered.
compound,measurement,setting,value
CC(C)C[C@H](NC(=O)[C@@H](COC(C)(C)C)NC(=O)[C@H](Cc1ccc(O)cc1)NC(=O)[C@H](CO)NC(=O)[C@H](Cc1c[nH]c2ccccc12)NC(=O)[C@H](Cc1cnc[nH]1)NC(=O)[C@@H]1CCC(=O)N1)C(=O)N[C@@H](CCCNC(=N)N)C(=O)N1CCC[C@H]1C(=O)NNC(N)=O [goserelin],average transdermal goserelin flux,"50 microA/cm^2 constant current, 4 cm^2, 8 h",5.8 microgram per hour
same,average transdermal flux of goserelin,"100 microA/cm^2 constant current, 4 cm^2, 8 h",21.6 µg/h
same,increase in drug flux,current density rises from 50 to 100 μA/cm^2,almost four-fold increase
